Patent US20240360126A1, “PYRAZOLO[3,4-B]PYRIDINE COMPOUNDS FOR THE TREATMENT OF AUTOIMMUNE DISEASE” (Hoffmann-La Roche Inc., priority 2021, published 2024)
Where two headings read alike, the source gives them in different places.

Experiments:
[1] = 3T3 in vitro phototoxicity assay (Neutral Red uptake); type: cell-based, mouse; settings: mouse, Balb/c 3T3 mouse fibroblasts (clone A 31, ATCC CCL 163); approx. 5 J/cm^2 UVA light
Description: (§1) Phototoxicity is defined as a toxic response that is elicited after the first exposure of the skin to certain chemicals and subsequent exposure to light, or that is induced similarly by skin irradiation after systemic administration of a chemical substance. The assay used in this study is designed to detect the phototoxic potential of a chemical by using a simple in vitro cytotoxicity assay with Balb/c 3T3 mouse fibroblasts. The principle of this test is a comparison of the cytotoxicity of a chemical when tested with and without exposure to a non-toxic dose of UVA-light. Cytotoxicity is expressed as a dose dependent reduction of the growth rate of cells as determined by uptake of the vital dye Neutral Red one day after treatment.
(§2) Preparation of Stock Solution and Dosage of Test Item A small amount of substance was weighed and formulated freshly in DMSO just before the start of the exposure of the cells. This stock solution or appropriate dilutions with DMSO were added to the cell suspensions to obtain the required final concentrations. All solutions were generally prepared in Eppendorf caps and discarded after use.
(§3) • Chlorpromazine (HCL) (Sigma, Batch/Lot No.: 120M1328V), test concentration: 300 μg/mL, Solvent: PBS/3% DMSO
(§4) For this study the Neutral Red uptake (NRU) assay of Borenfreund and Puemer (Borenfreund, E, Puemer J A. Toxicity determined in vitro by morphological alterations and Neutral Red absorption. Toxicology Lett. 1985; 24:119-124) modified according to INVITTOX protocol No 78 (ERGATT/FRAME data bank of in vitro techniques in toxicology. INVITTOX PROTOCOL No 78. 3T3 NRU Phototoxicity Assay. March 1994) has been adapted to examine a possible phototoxic potential of the test item. This assay is based on the active uptake of the Neutral Red dye into the lysosomes of cultured murine fibroblasts. Because lysosomal membranes are known to be a site of action of many phototoxic compounds, this assay can provide a measure of potential for phototoxic injury.
(§5) A murine fibroblasts clone A 31 (ATCC no. CCL 163—passage No. 108) were cultured in 175 cm^2 tissue culture grade flasks, containing sDMEM (Dulbecco's […] Essential Medium, supplemented with 10% fetal calf serum, 2 mM L-glutamine, 100 units/ml Penicillin and 100 μg/ml streptomycin) at 37° C. in a humidified atmosphere of 6% CO2. Before cells approach confluence they were removed from flasks by trypsinisation. Prior to use in an assay, the cells were transferred to 96-well microtiter plates at a concentration of 1×10^4 cells/well in 100 μl volumes of sDMEM and allowed to attach for 24 h. […]
(§6) For each test item the microtiter plates were prepared according to Table 6. […] UV flux was measured with a UV-meter (Dr. Gröbel RM21). […]

[2] = test system: Balb/c 3T3 mouse fibroblasts; test: as above; type: cell-based; settings: IC50 with and without UV exposure compared; cut-off >5
Description: as §1, §2, §3, §4, §5, §6

[3] = Single dose pharmacokinetics (PK) study in male Wister-Han rats; type: in vivo; settings: rat; for clearance / half-life / AUC(0-t) / Vd / Cmax: male, Wister-Han, plasma; for Vd: read-out: Vss; for F: dose normalized AUC0-last after IV and PO dose
Method: Pharmacokinetic properties of selected compounds were assessed by single dose PK studies in Male Wister-Han Rats (vendor: Beijing Vital River Laboratory Animal Technology Co., Ltd). Briefly, two groups of animals were administered a single dose of respective compound intravenously (IV, bolus) at 2 mg/kg or orally (PO, by gavage) at 10 mg/kg. Blood samples (approximately 150 μL) were collected via Jugular vein at 5 min (only for IV), 15 min, 30 min, 1 h, 2 h, 4 h, 7 h and 24 h post-dose. Blood samples were placed into tubes containing EDTA-K2 anticoagulant and centrifuged at 3000 rpm for 15 min at 4° C. to separate plasma from the samples. After centrifugation, the resulting plasma was transferred to clean tubes for bioanalysis with LC/MS/MS. The pharmacokinetic parameters were calculated using non-compartmental analysis. The volume of distribution (Vss), half-life (T1/2) and clearance (CL) were obtained based on the plasma concentration-time curve after IV dose. The peak concentration (Cmax) was recorded directly from experimental observations after PO dose. The area under the plasma concentration-time curve (AUC0-last) was calculated using the linear trapezoidal rule up to the last detectable concentration. The bioavailability (F) was calculated based on the dose normalized AUC0-last after IV and PO dose.
The Vss of a drug represents the degree to which a drug is distributed in body tissue rather than the plasma. Vss is directly proportional with the amount of drug distributed into tissue. A higher Vss indicates a greater amount of tissue distribution.

[4] = Human microsome stability assay; type: in vitro ADME; settings: 1 μM test compound, 0.5 mg/mL liver microsomal protein, 37° C.
Method: The human microsomal stability assay is used for early assessment of metabolic stability of a test compound in human liver microsomes.
Human liver microsomes (Cat. NO.: 452117, Corning, USA; Cat. NO.:H2610, Xenotech, USA) were preincubated with test compound for 10 minutes at 37° C. in 100 mM potassium phosphate buffer, pH 7.4. The reactions were initiated by adding NADPH regenerating system.
The final incubation mixtures contained 1 μM test compound, 0.5 mg/mL liver microsomal protein, 1 mM MgCl2, 1 mM NADP, 1 unit/mL isocitric dehydrogenase and 6 mM isocitric acid in 100 mM potassium phosphate buffer, pH 7.4. After incubation times of 0, 3, 6, 9, 15 and 30 minutes at 37° C., 300 μL of cold acetonitrile (including internal standard) was added to 100 μL incubation mixture to terminate the reaction. Following precipitation and centrifugation, the amount of compound remaining in the samples were determined by LC-MS/MS. Controls of no NADPH regenerating system at zero and 30 minutes were also prepared and analyzed.

[5] = IV 2 mg/kg, read-out: IV AUC0-last
[6] = PO 10 mg/kg, read-out: PO AUC0-last

clearance ([3]; IV 2 mg/kg)	half-life ([3]; IV 2 mg/kg)	AUC(0-t) [3, 5]	Vd ([3]; IV 2 mg/kg)	Cmax ([3]; PO 10 mg/kg)	AUC(0-t) [3, 6]	F [3]	Clearance of Human microsome [4]	Structure (SMILES)	IC50 at 1 h [1]	Phototoxicity factor [2]
32.8 mL/min/kg	436 min	1060 ng·h/mL	13.2 L/kg	216 ng/mL	2840 ng·h/mL	53.4%	8.1 mL/min/kg	Cc1cc(N2CC[C@H](c3ccc(N4CCOC[C@@H](N)C4)cn3)[C@@H](C)C2)c2cnn(C)c2n1 [Example 40, (6S)-4-[6-[(3R,4S)-1-(1,6-dimethylpyrazolo[3,4-b]pyridin-4-yl)-3-methyl-4-piperidyl]-3-pyridyl]-1,4-oxazepan-6-amine]	> 120 µg/mL	1
10.3 mL/min/kg	942 min	2200 ng·h/mL	12.5 L/kg	620 ng/mL	9260 ng·h/mL	84.3%		CO[C@@H]1CN(c2cnc([C@@H]3CCN(c4cc(C)nc5c4cnn5C)C[C@H]3C)c(C)c2)C[C@H]1N [Example 26, (3R,4R)-1-[6-[(3S,4R)-1-(1,6-dimethylpyrazolo[3,4-b]pyridin-4-yl)-3-methyl-4-piperidyl]-5-methyl-3-pyridyl]-4-methoxy-pyrrolidin-3-amine]		
16 mL/min/kg	882 min	1520 ng·h/mL	16.8 L/kg	465 ng/mL	7510 ng·h/mL	100%	6.2 mL/min/kg	Cc1cc(N2CCC(c3ncc(N4CCNCC4)cc3C)CC2)c2cnn(C)c2n1 [Example 7, 1,6-dimethyl-4-[4-(3-methyl-5-piperazin-1-yl-2-pyridyl)-1-piperidyl]pyrazolo[3,4-b]pyridine]		
30.2 mL/min/kg	530 min	974 ng·h/mL	16.7 L/kg	122 ng/mL	1800 ng·h/mL	37%	6.2 mL/min/kg	Cc1cc(N2CC[C@@H](c3ncc(N4CCOC[C@@H](N)C4)cc3C)[C@H](C)C2)c2cnn(C)c2n1 [Example 28, (6S)-4-[6-[(3S,4R)-1-(1,6-dimethylpyrazolo[3,4-b]pyridin-4-yl)-3-methyl-4-piperidyl]-5-methyl-3-pyridyl]-1,4-oxazepan-6-amine]	> 120 µg/mL	1
